# Patent US4554367A, “Phosphonium organohalogenostannates-IV” (priority 1982, dated 1985)
# Tests used:
# Aspergillus phoenicia = assay: MIC against fungi, strain H; format: cell-based; conditions: malt extract agar
# Experimental: (§1) Determination of the minimum inhibitory concentration (MIC) against fungi
# (§2) The investigation is carried out in malt extract agar (Merck) by the known agar incorporation test using the fungi
# (§3) For inhibition, the various compounds are in each case added in amounts such that concentrations of […] results in the agar. The concentrations (mg/liter) required for inhibition of the growth of the fungi (starting from traces of fungi dripped on) are illustrated in Table D.
# Aspergillus niger = assay: MIC against fungi, strain G; format: cell-based; conditions: malt extract agar
# Experimental: as §1, §2
# Aureobasidium pullulans = assay: MIC against fungi, strain N; format: cell-based; conditions: malt extract agar
# Experimental: as §1, §2
# N Aureobasidium pullulans
# as §3
# Endomyces geotrichum = assay: MIC against fungi, strain M; format: cell-based; conditions: malt extract agar
# Experimental: as §1, §2, §3
# Proteus vulgaris = assay: MIC against bacteria, strain A; format: cell-based; conditions: 24 h, 30° C., tested at 100 or 300 mg/liter
# Experimental: (§4) Determination of the minimum inhibitory concentration (MIC) against bacteria
# (§5) ONCs (cultures incubated overnight) of the bacteria strains A-F grown in Caso-Peptone broth (Merck) are each diluted […] in saline. An amount of the suspension is introduced into Caso-Peptone broth such that the bacteria are again diluted 1:1,000. The cultures are treated with 100 or 300 mg/liter of the phosphonium stannates shown in Table B. After incubation at 30° C. in a shaking water bath for 24 hours, the cultures are evaluated on the basis of cloudiness. The MIC is the concentration at which the broth is not clouded by bacterial growth.
# Alternaria alternata = assay: MIC against fungi, strain J; format: cell-based; conditions: malt extract agar
# Experimental: as §1, §2, §3
# Bacillus subtilis = assay: MIC against bacteria, strain F; format: cell-based; conditions: 24 h, 30° C., tested at 100 or 300 mg/liter
# Experimental: as §4, §5
# Artemia salina = assay: Action against Artemia salina; format: in vivo; design: key: 0: nauplii not affected; 1: slight change; 1-2: nauplii affected; 2: nauplii severely affected; 2-3: almost all nauplii dead; 3: all nauplii dead
# Text: Determination of the action against Artemia salina
# The commercially available eggs are caused to hatch under powerful aeration. […]
# [1] = system: Cladosporium cladosporioides; assay: MIC against fungi, strain K; format: cell-based; conditions: malt extract agar
# Experimental: as §1, §2
# K Cladosporium cladosporioides
# as §3
# Pseudomonas aeruginosa = assay: MIC against bacteria, strain B; format: cell-based; conditions: 24 h, 30° C., tested at 100 or 300 mg/liter
# Experimental: as §4, §5
# Serratia marcenscens = assay: MIC against bacteria, strain D; format: cell-based; conditions: 24 h, 30° C., tested at 100 or 300 mg/liter
# Experimental: as §4, §5
# Enterobacter aerogenes = assay: MIC against bacteria, strain C; format: cell-based; conditions: 24 h, 30° C., tested at 100 or 300 mg/liter
# Experimental: as §4, §5
# Chaetomium globosum = assay: MIC against fungi, strain O; format: cell-based; conditions: malt extract agar
# Experimental: as §1, §2, §3
# Chlorella vulgaris = assay: Action against Chlorella vulgaris; format: cell-based; design: key to Growth in the medium: 1: no growth in the medium, 3 ppm have a growthinhibiting action; key to Growth on the agar: 2: no growth on the agar, 3 ppm have destroyed the algae within 6 hours; conditions: 3 mg/liter; for Growth on the agar: 6 hours exposure (algae-destruction action); for Growth in the medium: 14 days (inhibition of growth)
# Experimental: Determination of the action against algae
# A Chlorella vulgaris culture grown for 14 days in algae nutrient medium is diluted 1:200 in algae nutrient medium. Each of the compounds listed in Table E is then added such that a concentration of 3 mg/liter results. After incubation for 6 hours, 10 μl are in each case withdrawn and dripped onto algae agar in order to determine the destructive action.
# Penicillium funiculosum = assay: MIC against fungi, strain I; format: cell-based; conditions: malt extract agar
# Experimental: as §1, §2
# I Penicillium funiculosum
# as §3
# Candida albicans = assay: MIC against fungi, strain L; format: cell-based; conditions: malt extract agar
# Experimental: as §1, §2, §3
# [2] = system: Alkaligenes denitrificans; assay: MIC against bacteria, strain E; format: cell-based; conditions: 24 h, 30° C., tested at 100 or 300 mg/liter
# Experimental: as §4, §5
# Aureobasidium pullans = assay: Growth on wood; conditions: 28° C., 4 weeks
# Experimental: Small wooden blocks of spruce, 7×10×10 mm in size, are dried under a vacuum for 30 minutes. The small blocks are then subjected to impregnation under a vacuum, by being left in 20 ml of distilled water and the biocide under vacuum for 30 minutes, and are then exposed to pressure treatment (2 atmospheres gauge by compressed air) in water for 18 hours. The pieces of wood thus treated are either immediately dried or first subjected to bleaching in running water and then dried.
# The small dried pieces of wood are placed on potato glucose agar and the wood and surrounding agar are innoculated with 0.1 ml of a spore suspension of Aureobasidium pullans. After incubation at 28° C. for 4 weeks, the growth is evaluated according to the following plan.
# 4=No growth on the wood, inhibitory zone up to 2 mm
# 5=No growth on the wood, inhibitory zone greater than 2 mm
Structure (SMILES),MIC against fungi (Aspergillus phoenicia) [µg/mL],MIC against fungi (Aspergillus niger) [µg/mL],MIC against fungi (Aureobasidium pullulans) [µg/mL],MIC against fungi (Endomyces geotrichum) [µg/mL],MIC (Proteus vulgaris) [µg/mL],MIC against fungi (Alternaria alternata) [µg/mL],MIC (Bacillus subtilis) [µg/mL],"Action against Artemia salina (Artemia salina; 0.25 mg/liter, 6 hours)","Action against Artemia salina (Artemia salina; 0.25 mg/liter, 24 hours)","Action against Artemia salina (Artemia salina; 0.25 mg/liter, 48 hours)",MIC against fungi [1] [µg/mL],MIC (Pseudomonas aeruginosa) [µg/mL],MIC (Serratia marcenscens) [µg/mL],MIC (Enterobacter aerogenes) [µg/mL],MIC against fungi (Chaetomium globosum) [µg/mL],Growth on the agar (Chlorella vulgaris),Growth in the medium (Chlorella vulgaris),MIC against fungi (Penicillium funiculosum) [µg/mL],MIC against fungi (Candida albicans) [µg/mL],MIC [2] [µg/mL],further results
CCCCCCCCCCCCCC[P+](CCCC)(CCCC)CCCC.CCCCCCCCCCCCCC[P+](CCCC)(CCCC)CCCC.[CH3][Sn-2]([Cl])([Cl])([Cl])([Cl])[Cl] [Example 23],50,50,10,10,100,50,100,0,1-2,2-3,10,100,100,100,10,2,1,10,10,100,"Action against Artemia salina (Artemia salina; 0.5 mg/liter, 6 hours): 1-2; Action against Artemia salina (Artemia salina; 0.5 mg/liter, 24 hours): 2-3; Action against Artemia salina (Artemia salina; 0.5 mg/liter, 48 hours): 3; Action against Artemia salina (Artemia salina; 1 mg/liter, 6 hours): 1-2; Action against Artemia salina (Artemia salina; 1 mg/liter, 24 hours): 3; Action against Artemia salina (Artemia salina; 1 mg/liter, 48 hours): 3; Action against Artemia salina (Artemia salina; 2.5 mg/liter, 6 hours): 1-2; Action against Artemia salina (Artemia salina; 2.5 mg/liter, 24 hours): 3; Action against Artemia salina (Artemia salina; 2.5 mg/liter, 48 hours): 3"
CCCC[P+](CCCC)(CCCC)CCCC.CCC[CH2][Sn-]([Cl])([Cl])([CH2]CCC)[CH2]CCC [Example 45],10,10,10,10,–,10,–,–,–,–,10,–,–,–,10,2,1,10,10,–,–
CCCCCCCCCCCCCC[P+](CCCC)(CCCC)CCCC.CCCCCCCCCCCCCC[P+](CCCC)(CCCC)CCCC.CCC[CH2][Sn-2]([Cl])([Cl])([Cl])([Cl])[Cl] [Example 25],> 100,100,10,10,100,100,100,–,–,–,10,100,100,100,50,2,1,10,50,100,–
CCCCCCCCCCCCCC[P+](CCCC)(CCCC)CCCC.[CH3][Sn-]([Cl])([Cl])([Cl])[Cl] [Example 22],50,50,10,10,100,50,100,0,1-2,2-3,10,100,100,100,10,2,1,10,10,100,"Action against Artemia salina (Artemia salina; 0.5 mg/liter, 6 hours): 1-2; Action against Artemia salina (Artemia salina; 0.5 mg/liter, 24 hours): 3; Action against Artemia salina (Artemia salina; 0.5 mg/liter, 48 hours): 3; Action against Artemia salina (Artemia salina; 1 mg/liter, 6 hours): 1-2; Action against Artemia salina (Artemia salina; 1 mg/liter, 24 hours): 3; Action against Artemia salina (Artemia salina; 1 mg/liter, 48 hours): 3; Action against Artemia salina (Artemia salina; 2.5 mg/liter, 6 hours): 1-2; Action against Artemia salina (Artemia salina; 2.5 mg/liter, 24 hours): 3; Action against Artemia salina (Artemia salina; 2.5 mg/liter, 48 hours): 3"
CCCCCCCCCCCCCC[P+](CCCC)(CCCC)CCCC.CCCCCCCCCCCCCC[P+](CCCC)(CCCC)CCCC.[CH3][Sn-2]([CH3])([Cl])([Cl])([Cl])[Cl] [Example 21],50,50,10,10,100,50,100,1-2,3,3,10,100,100,100,10,2,1,10,10,100,"Action against Artemia salina (Artemia salina; 0.5 mg/liter, 6 hours): 1-2; Action against Artemia salina (Artemia salina; 0.5 mg/liter, 24 hours): 2; Action against Artemia salina (Artemia salina; 0.5 mg/liter, 48 hours): 3; Action against Artemia salina (Artemia salina; 1 mg/liter, 6 hours): 1-2; Action against Artemia salina (Artemia salina; 1 mg/liter, 24 hours): 3; Action against Artemia salina (Artemia salina; 1 mg/liter, 48 hours): 3; Action against Artemia salina (Artemia salina; 2.5 mg/liter, 6 hours): 1-2; Action against Artemia salina (Artemia salina; 2.5 mg/liter, 24 hours): 3; Action against Artemia salina (Artemia salina; 2.5 mg/liter, 48 hours): 3"
OC[P+](CO)(CO)CO.[Cl][Sn-]([Cl])([CH]1CCCCC1)([CH]1CCCCC1)[CH]1CCCCC1 [Example 26],–,–,–,–,–,–,–,–,–,–,–,–,–,–,–,–,–,–,–,–,"Growth on wood, leached for 5 days (Aureobasidium pullans; 0.01% in H2O): 4 (No growth on the wood, inhibitory zone up to 2 mm); Growth on wood, not leached (Aureobasidium pullans; 0.01% in H2O): 5 (No growth on the wood, inhibitory zone greater than 2 mm); Growth on wood, leached for 5 days (Aureobasidium pullans; 0.05% in H2O): 5 (No growth on the wood, inhibitory zone greater than 2 mm); Growth on wood, not leached (Aureobasidium pullans; 0.05% in H2O): 5 (No growth on the wood, inhibitory zone greater than 2 mm)"
CCCCCCCCCCCCCC[P+](CCCC)(CCCC)CCCC.CCC[CH2][Sn-]([Cl])([Cl])([Cl])[Cl] [Example 24],> 100,> 100,10,50,100,> 100,100,–,–,–,10,100,100,100,50,2,1,10,50,100,–
